Data on two compounds can be found in US9422265B2, “Process for the preparation of 3-(3-chloro-1H-pyrazol-1-yl)pyridine” (Dow AgroSciences LLC, priority 2014, dated 2016).

In experiment [1] the test system is Green Peach Aphid (Myzus persicae) (MYZUPE). As to the kind of experiment: Bioassay on Green Peach Aphid (GPA), cabbage seedling foliar spray. The format is in vivo. As to conditions: 72 h, 200 ppm spray on cabbage seedlings, graded after three days, live aphids, Abbott's correction, read-out: MYZUPE rating (% Control of Mortality). As to the method:
Example A Bioassays on Green Peach Aphid (“GPA”) (Myzus persicae) (MYZUPE.)
Several molecules disclosed herein were tested against GPA using procedures described below.
Cabbage seedling grown in 3-in pots, with 2-3 small (3-5 cm) true leaves, were used as test substrate. The seedlings were infested with […] (wingless adult and nymph stages) one day prior to chemical application. Four posts with individual seedlings were used for each treatment. Test compounds (2 mg) were dissolved in 2 mL of acetone/methanol (1:1) solvent, forming stock solutions of 1000 ppm test compound. The stock solutions were diluted 5× with 0.025% Tween 20 in water to obtain the solution at 200 ppm test compound. A hand-held aspirator-type sprayer was used for spraying a solution to both sides of the cabbage leaves until runoff. Reference plants (solvent check) were sprayed with the diluent only containing 20% by volume acetone/methanol (1:1) solvent. Treated plants were held in a holding room for three days at approximately 25° C. and ambient relative humidity (RH) prior to grading. Evaluation was conducted by counting the number of live aphids per plant under a microscope. Percent Control was measured by using Abbott's correction formula (W. S. Abbott, “A Method of Computing the Effectiveness of an Insecticide” J. Econ. Entomol 18 (1925), pp. 265-267) as follows. […]

Experiment [2] deals with Sweetpotato Whitefly Crawler (Bemisia tabaci) (BEMITA). The experiment can be described thus: Bioassay on Sweetpotato Whitefly Crawler, cotton plant foliar spray. The format is in vivo. The settings on record: 200 ppm spray on cotton plants, graded after 8-9 days, live nymphs, Abbott's correction, read-out: BEMITA rating (% Control of Mortality). The source says:
Example B Bioassays on Sweetpotato Whitefly Crawler (Bemisia tabaci) (BEMITA.)
Cotton plants grown in 3-inch pots, with 1 small (3-5 cm) true leaf, were used at test substrate. The plants were placed in a room with whitefly adults. Adults were allowed to deposit eggs for 2-3 days. After a 2-3 day egg-laying period, plants were taken from the adult whitefly room. Adults were blown off leaves using a hand-held Devilbliss sprayer (23 psi). Plants with egg infestation (100-300 eggs per plant) were placed in a holding room for 5-6 days at 82° F. and 50% RH for egg hatch and crawler stage to develop. Four cotton plants were used for each treatment. Compounds (2 mg) were dissolved in 1 mL of acetone solvent, forming stock solutions of 2000 ppm. The stock solutions were diluted 10× with 0.025% Tween 20 in water to obtain a test solution at 200 ppm. A hand-held Devilbliss sprayer was used for spraying a solution to both sides of cotton leaf until runoff. Reference plants (solvent check) were sprayed with the diluent only. Treated plants were held in a holding room for 8-9 days at approximately 82° F. and 50% RH prior to grading. Evaluation was conducted by counting the number of live nymphs per plant under a microscope.

As usually defined, the mortality is the share of the test organisms that died. Consider `CCN(C(=O)CC[S+]([O-])CCC(F)(F)F)c1cn(-c2cccnc2)nc1Cl` (stereo not shown) [Compound 2-12, N-(3-chloro-1-(pyridin-3-yl)-1H-pyrazol-4-yl)-N-ethyl-3-((3,3,3-trifluoropropyl)sulfoxo)propanamide], for which the mortality at 200 ppm in experiment [1] and in experiment [2] was 80 to 100% throughout.

For the compound `CCN(C(=O)CCSCCC(F)(F)F)c1cn(-c2cccnc2)nc1Cl` [Compound 2-11, N-(3-chloro-1-(pyridin-3-yl)-1H-pyrazol-4-yl)-N-ethyl-3-((3,3,3-trifluoropropyl)thio)propanamide], the mortality at 200 ppm in experiment [1] and in experiment [2] was 80 to 100% throughout.
